Tests used:
E. coli strain AB1157 [1] = assay: Fractional survival of histone H1-contacted cells by colony counting
Procedure: Purified bovine histone H1 was prepared as described herein in Example 1. Cells of E. coli strain AB1157 (obtained from ATCC) were grown in NYET medium (4 grams per liter nutrient broth, 7.5 grams per liter yeast extract, and 4 grams per lither tryptone) at 37° C. E. coli cells in approximately the exponential growth phase were incubated in Sorensen buffer (41 mM Na2HPO4, 25.7 mM KH2PO4) for twenty minutes in the presence of a selected concentration of histone H1. The fractional survival of histone H1-contacted cells, relative to cells which were not contacted with histone H1 was determined by counting colonies using an automated colony counter (3M model 620). About 200 microliters of an H1-containing bacterial suspension was plated into Petri dishes by adding 10 milliliters of 57° C. medium containing 1.5% (w/w) Bacto agar. […]
Purified bovine histone H1 was prepared as described herein in Example 1. Cells of E. coli strain AB1157 were incubated in Sorensen buffer at a selected temperature for a selected period in the presence of a 1.9 micromolar histone H1 The fractional survival of histone H1-contacted cells, relative to cells not contacted with histone H1 was determined as described herein in Example 4. […] Normal human body temperature is about 37° C. […]
Purified bovine histone H1 was prepared as described herein in Example 1. Cells of E. coli strain AB1157 were incubated in Sorensen buffer at a selected temperature for a selected period in the presence of a selected concentration histone H1. In selected assays, the medium also contained between 0 and about 10% (v/v) human or bovine serum. The fractional survival of histone H1-contacted cells, relative to cells not contacted with histone H1 was determined as described herein in Example 4. […]

E. coli strain AB1157 [2] = assay: Inhibition of the antibiotic activity of histone H1 by heparin; assay type: cell-based, Escherichia coli; conditions: 4 micrograms per milliliter histone H1, 37° C., ten minutes
Procedure: In selected assays, the incubation medium also contained a selected concentration of heparin, in the range from 0 to about 250 units per milliliter.

Staphylococcus aureus = assay: Percent reduction in colony formation (spectrum of antibiotic activity); assay type: cell-based; conditions: 37° C.
Procedure: (§1) Histone H1 suspended in Sorensen buffer was added to aliquots of individual bacterial cultures to achieve a final concentration of either 1.9 micromolar or 3.8 micromolar. No histone H1 was added to individual control culture aliquots. The aliquots were thereafter incubated at 37° C. for either ten minutes or forty-five minutes, and the aliquots were plated on appropriate solid or semisolid media.

[3] = test system: Escherichia coli strain AB1157; assay: as above; assay type: cell-based; conditions: 37° C.
Procedure: as §1

Bacillus cereus = assay: as above; assay type: cell-based; conditions: 37° C.
Procedure: as §1

Serratia marcescens = assay: as above; assay type: cell-based; conditions: Incubation time 10 minutes; [Histone H1] 1.9 micromolar; 37° C.
Procedure: as §1

Salmonella enteritidis = assay: as above; assay type: cell-based; conditions: Incubation time 10 minutes; [Histone H1] 1.9 micromolar; 37° C.
Procedure: as §1

Bacillus subtilis = assay: as above; assay type: cell-based; conditions: Incubation time 10 minutes; [Histone H1] 1.9 micromolar; 37° C.
Procedure: as §1

Proteus mirabilis = assay: as above; assay type: cell-based; conditions: Incubation time 10 minutes; [Histone H1] 1.9 micromolar; 37° C.
Procedure: as §1

Pseudomonas aeruginosa = assay: as above; assay type: cell-based; conditions: 37° C.
Procedure: as §1

Bacillus megaterium = assay: as above; assay type: cell-based; conditions: 37° C.
Procedure: as §1

Enterococcus faecalis = assay: as above; assay type: cell-based; conditions: 37° C.
Procedure: as §1

animal cells = conditions: on the order of; cited from earlier work
[4] = test system: penicillin-resistant E. coli strain derived from strain AB1157; assay: Bacteriocidal effect upon penicillin-resistant bacteria (fractional survival); assay type: cell-based, Escherichia coli; conditions: histone H1 in Sorensen buffer, 37° C.
From the text: Cells of E. coli strain AB1157 were made penicillin-resistant by culturing them in penicillin-containing growth media over a period of several days. The resulting population was completely resistant to penicillin.

E. coli strain AB1157 [5] = assay: Thermal stability of histone H1 (antibiotic activity after storage); assay type: cell-based, Escherichia coli; conditions: for fractional survival of cells: 40 micrograms per milliliter, 37° C., ten minutes
Procedure: In a first experiment, purified histone H1 was stored at −80° C. for more than thirty-six months.
In a second experiment, aliquots of purified histone H1 were separately stored at −80° C., at 4° C., and at 37° C. for twenty hours. […] The fractional survival of cells incubated with histone H1 stored at −80° C. was about 0.1%. The fractional survival of cells incubated with histone H1 stored at 4° C. was about 1%. The fractional survival of cells incubated with histone H1 stored at 37° C. was about 6%.

[6] = test system: various strains of E. coli isolated from urinary tract infections; assay: Exposure time dependence of antibiotic activity, urinary tract infection isolates; assay type: cell-based, Escherichia coli; conditions: after thirty minutes; all strains
Procedure: Histone H1 suspended in Sorensen buffer was added to aliquots of individual bacterial cultures to achieve a final concentration of either 1.9 micromolar or 3.8 micromolar. No histone H1 was added to individual control culture aliquots. […]

bacterial cells = assay: Toxic concentration for bacterial cells; assay type: cell-based
[7] = test system: non-cancerous eukaryotic cells
E. coli strain AB1157 [8] = assay: Membrane damage by Sytox Green dye and flow cytometer; assay type: cell-based, Escherichia coli; conditions: 0.4, 0.95 and 1.9 μM histone H1, 37° C., various time intervals
Procedure: Membrane damage of E. coli cells was determined at various time intervals, using the dye Sytox Green and a flow cytometer as described (Roth et al., 1997, Appl. Env. Microbiol. 63:2421-2431).

E. coli strain AB1157 [9] = assay: Development of bacterial resistance to histone H1; assay type: cell-based, Escherichia coli; conditions: FIG. 6
Procedure: Purified bovine histone H1 is prepared as described herein in Example 1. Cells of E. coli strain AB1157 are incubated in aliquots of Sorensen buffer containing various set concentrations of histone H1. The aliquot having the highest histone H1 concentration in which cells proliferate (as indicated, for example, by turbidity of the buffer) is used to seed cultures having even higher histone H1 concentrations. This process is repeated until cells are isolated which grow at a concentration of histone H1 that is normally toxic to E. coli cells.

E. coli strain AB1157 [10] = assay: Binding of histone H1 to bacteria (activity of medium pre-contacted with cells); assay type: cell-based, Escherichia coli; conditions: forty-five minutes pre-incubation with E. coli cells, decanted medium re-inoculated
Procedure: An aliquot of cells of E. coli strain AB1157 was incubated with histone H1 as described herein in Example 4. After forty-five minutes of incubation, cells were removed by centrifugation and decanting.

[11] = Incubation time 10 minutes, [Histone H1] 1.9 micromolar
[12] = Incubation time 10 minutes, [Histone H1] 3.8 micromolar
[13] = Incubation time 45 minutes, [Histone H1] 1.9 micromolar
[14] = Incubation time 45 minutes, [Histone H1] 3.8 micromolar

Molecule: NC[C@H]1O[C@H](O[C@H]2[C@H](O)[C@@H](O[C@H]3O[C@H](CO)[C@@H](O)[C@H](N)[C@H]3O)[C@H](N)C[C@@H]2N)[C@H](O)[C@@H](O)[C@@H]1O [kanamycin, reference compound]
- cytotoxicity (E. coli strain AB1157 [1]; 1.9 micromolar, 37° C., ten minutes, Sorensen buffer): no measurable cytotoxicity

Molecule: heparin
- heparin concentration at which histone H1 exhibited essentially no antibiotic activity (E. coli strain AB1157 [2]): greater than 150 units per milliliter
- lowest heparin concentration that reduced the antibiotic activity of histone H1 (E. coli strain AB1157 [2]): 6.2 units per milliliter

Molecule: histone H1
- Percent Reduction in Colony Formation (Staphylococcus aureus; [11]): 0.0%
- Percent Reduction in Colony Formation (Staphylococcus aureus; [12]): 0.0%
- Percent Reduction in Colony Formation (Staphylococcus aureus; [13]): 0.0%
- Percent Reduction in Colony Formation (Staphylococcus aureus; [14]): 0.0%
- Percent Reduction in Colony Formation [3, 11]: 99.6%
- Percent Reduction in Colony Formation [3, 12]: 99.9%
- Percent Reduction in Colony Formation [3, 13]: 99.7%
- Percent Reduction in Colony Formation [3, 14]: 100%
- Percent Reduction in Colony Formation (Bacillus cereus; [11]): 11.8%
- Percent Reduction in Colony Formation (Bacillus cereus; [12]): 50.7%
- Percent Reduction in Colony Formation (Bacillus cereus; [13]): 42.5%
- Percent Reduction in Colony Formation (Bacillus cereus; [14]): 77.4%
- Percent Reduction in Colony Formation (Serratia marcescens): 14.0%
- Percent Reduction in Colony Formation (Salmonella enteritidis): >99%
- Percent Reduction in Colony Formation (Bacillus subtilis): 97.4%
- Percent Reduction in Colony Formation (Proteus mirabilis): 0.0%
- Percent Reduction in Colony Formation (Pseudomonas aeruginosa; [11]): 99.6%
- Percent Reduction in Colony Formation (Pseudomonas aeruginosa; [12]): 100%
- Percent Reduction in Colony Formation (Pseudomonas aeruginosa; [13]): 100%
- Percent Reduction in Colony Formation (Pseudomonas aeruginosa; [14]): 100%
- Percent Reduction in Colony Formation (Bacillus megaterium; [11]): 93.3%
- Percent Reduction in Colony Formation (Bacillus megaterium; [12]): 91.2%
- Percent Reduction in Colony Formation (Bacillus megaterium; [13]): 92.9%
- Percent Reduction in Colony Formation (Bacillus megaterium; [14]): 99.3%
- Percent Reduction in Colony Formation (Enterococcus faecalis; [11]): 0.0%
- Percent Reduction in Colony Formation (Enterococcus faecalis; [12]): 0.0%
- Percent Reduction in Colony Formation (Enterococcus faecalis; [13]): 0.0%
- Percent Reduction in Colony Formation (Enterococcus faecalis; [14]): 0.0%
- concentrations that may induce death of animal cells (animal cells): 10 to 100 µM
- killing of penicillin-resistant cells compared with wild type cells [4]: killed penicillin-resistant cells approximately as efficiently as it killed wild type cells
- lowest H1 concentration at which significant cytotoxicity was observed (E. coli strain AB1157 [1]): 0.24 µM
- dependence of antibiotic activity on serum (E. coli strain AB1157 [1]; 0 to about 10% (v/v) human AB serum or fetal calf serum): independent of serum concentrations at concentrations at least as high as 10% (v/v) serum
- incubation time sufficient to achieve maximal cytotoxic effect (E. coli strain AB1157 [1]; 1.9 micromolar H1, 37° C.): less than ten
- temperature dependency of bactericidal effect (E. coli strain AB1157 [1]; 1.9 micromolar histone H1, 4° C., 30° C., 37° C.): significantly greater at 37 °C than at either 4 °C or 30 °C
- E. coli cells killed (E. coli strain AB1157 [1]; histone H1 concentration less than 1 micromolar, twenty minutes in Sorensen buffer): more than 98%
- fractional survival of cells (E. coli strain AB1157 [5]; histone H1 stored at 4° C. for twenty hours): about 1%
- fractional survival of cells (E. coli strain AB1157 [5]; histone H1 stored at 37° C. for twenty hours): about 6%
- fractional survival of cells (E. coli strain AB1157 [5]; histone H1 stored at −80° C. for twenty hours): about 0.1%
- antibiotic activity after storage (E. coli strain AB1157 [5]; stored at −80° C. for more than thirty-six months): not significantly decreased
- survival [6]: less than 3%
- toxic concentration (bacterial cells; bacterial cells): less than 80 micrograms per milliliter
- concentrations that induce death of bacterial cells (bacterial cells; relatively low concentrations, as described herein): 0.2 to 4 µM
- toxic concentration [7]: more than 200 or 250 micrograms per milliliter
- fraction of the cells which exhibited membrane damage (E. coli strain AB1157 [8]): dependent on the concentration of histone H1
- development of resistance of E. coli cells to the antibiotic activity (E. coli strain AB1157 [9]): can develop resistance
- binding to bacteria (E. coli strain AB1157 [10]): binds specifically to bacteria in a non-reversible manner

B1: Trypsin: Protease used to digest histone H1; tested alone as control (protein, UniProt P00760 24-246, looked up)
Serine protease 1: IVGGYTCGANTVPYQVSLNSGYHFCGGSLINSQWVVSAAHCYKSGIQVRLGEDNINVVEGNEQFISASKSIVHPSYNSNTLNNDIMLIKLKSAASLNSRVASISLPTSCASAGTQCLISGWGNTKSSGTSYPDVLKCLKAPILSDSSCKSAYPGQITSNMFCAGYLEGGKDSCQGDSGGPVVCSGKLQGIVSWGSGCAQKNKPGVYTKVCNYVSWIKQTIASN
- effect on survival of the bacteria (E. coli strain AB1157 [1]; trypsin alone): had no effect on the survival of the bacteria
